Measurements as given in PMC6199744, “Development of Chemical Proteomics for the Folateome and Analysis of the Kinetoplastid Folateome” (ACS Infectious Diseases, 2018).
Like-named read-outs stand apart in the source and are kept apart here.

Legend:
Type in all cases: binding
[1] = molecular target: T1, HeLa cell extract proteins (Homo sapiens, UniProt P62081)
T1 construct: endogenous in cells; host or cells: HeLa cell extract

[2] = molecular target: T2, HeLa cell extract proteins (Homo sapiens, UniProt P60510)
T2 construct: endogenous in cells; host or cells: HeLa cell extract
T2 sequence (P60510 1-307): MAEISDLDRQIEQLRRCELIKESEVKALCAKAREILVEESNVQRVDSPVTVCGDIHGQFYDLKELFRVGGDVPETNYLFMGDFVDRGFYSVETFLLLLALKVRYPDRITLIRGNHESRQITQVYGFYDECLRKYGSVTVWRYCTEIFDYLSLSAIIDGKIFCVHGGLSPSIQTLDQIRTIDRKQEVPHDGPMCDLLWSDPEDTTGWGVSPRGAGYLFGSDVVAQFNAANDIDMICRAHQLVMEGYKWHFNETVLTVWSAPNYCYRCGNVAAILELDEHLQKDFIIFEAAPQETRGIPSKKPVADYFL

[3] = molecular target: T3, HeLa cell extract proteins (Homo sapiens, UniProt Q9P2E9)
T3 construct: endogenous in cells; host or cells: HeLa cell extract
T3 sequence (Q9P2E9 1-1410): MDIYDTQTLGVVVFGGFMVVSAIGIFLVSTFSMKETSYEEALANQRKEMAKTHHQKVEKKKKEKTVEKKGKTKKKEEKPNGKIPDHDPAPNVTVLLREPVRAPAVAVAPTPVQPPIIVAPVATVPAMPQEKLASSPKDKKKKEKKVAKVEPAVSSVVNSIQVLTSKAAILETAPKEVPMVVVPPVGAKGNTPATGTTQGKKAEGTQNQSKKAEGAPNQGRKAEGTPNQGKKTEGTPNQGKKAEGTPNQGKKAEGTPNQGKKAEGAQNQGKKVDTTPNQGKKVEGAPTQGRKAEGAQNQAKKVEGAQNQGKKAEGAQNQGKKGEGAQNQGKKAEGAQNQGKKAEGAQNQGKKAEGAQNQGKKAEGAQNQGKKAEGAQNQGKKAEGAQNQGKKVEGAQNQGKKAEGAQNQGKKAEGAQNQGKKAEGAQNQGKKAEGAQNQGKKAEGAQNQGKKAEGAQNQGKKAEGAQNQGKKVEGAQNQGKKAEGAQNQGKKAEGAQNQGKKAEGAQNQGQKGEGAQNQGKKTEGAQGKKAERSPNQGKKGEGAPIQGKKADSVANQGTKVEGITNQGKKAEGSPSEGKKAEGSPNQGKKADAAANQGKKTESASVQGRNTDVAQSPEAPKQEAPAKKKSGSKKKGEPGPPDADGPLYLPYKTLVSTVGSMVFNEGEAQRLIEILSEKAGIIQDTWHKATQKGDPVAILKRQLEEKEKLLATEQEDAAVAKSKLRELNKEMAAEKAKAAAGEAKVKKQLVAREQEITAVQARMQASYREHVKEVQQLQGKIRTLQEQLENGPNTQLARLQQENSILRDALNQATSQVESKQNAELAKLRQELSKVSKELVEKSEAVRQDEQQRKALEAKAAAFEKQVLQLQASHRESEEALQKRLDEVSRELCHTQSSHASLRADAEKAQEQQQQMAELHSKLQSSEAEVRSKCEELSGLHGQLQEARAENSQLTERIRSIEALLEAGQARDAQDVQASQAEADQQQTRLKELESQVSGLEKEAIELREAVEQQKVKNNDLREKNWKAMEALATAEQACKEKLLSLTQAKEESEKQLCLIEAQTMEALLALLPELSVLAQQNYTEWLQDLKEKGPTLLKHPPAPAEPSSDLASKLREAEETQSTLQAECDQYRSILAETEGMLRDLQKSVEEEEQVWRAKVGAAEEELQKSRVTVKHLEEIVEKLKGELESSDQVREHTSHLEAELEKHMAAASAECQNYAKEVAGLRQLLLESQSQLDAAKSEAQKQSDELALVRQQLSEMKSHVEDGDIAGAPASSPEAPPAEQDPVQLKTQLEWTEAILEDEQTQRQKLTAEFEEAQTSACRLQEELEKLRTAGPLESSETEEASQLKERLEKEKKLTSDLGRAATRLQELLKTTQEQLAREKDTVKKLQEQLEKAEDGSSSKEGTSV

[4] = molecular target: T4, HeLa cell extract proteins (Homo sapiens, UniProt Q9NYP7)
T4 construct: endogenous in cells; host or cells: HeLa cell extract
T4 sequence (Q9NYP7 1-299): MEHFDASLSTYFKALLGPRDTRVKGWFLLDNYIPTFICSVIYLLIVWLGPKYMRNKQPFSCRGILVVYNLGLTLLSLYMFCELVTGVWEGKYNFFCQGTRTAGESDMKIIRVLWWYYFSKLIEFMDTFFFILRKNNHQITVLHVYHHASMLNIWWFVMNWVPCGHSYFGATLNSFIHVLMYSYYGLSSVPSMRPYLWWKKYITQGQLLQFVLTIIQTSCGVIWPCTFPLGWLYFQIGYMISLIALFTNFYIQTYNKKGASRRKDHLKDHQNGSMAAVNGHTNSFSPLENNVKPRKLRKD

[5] = molecular target: T5, HeLa cell extract proteins (Homo sapiens, UniProt P13797)
T5 construct: endogenous in cells; host or cells: HeLa cell extract
T5 sequence (P13797 1-630): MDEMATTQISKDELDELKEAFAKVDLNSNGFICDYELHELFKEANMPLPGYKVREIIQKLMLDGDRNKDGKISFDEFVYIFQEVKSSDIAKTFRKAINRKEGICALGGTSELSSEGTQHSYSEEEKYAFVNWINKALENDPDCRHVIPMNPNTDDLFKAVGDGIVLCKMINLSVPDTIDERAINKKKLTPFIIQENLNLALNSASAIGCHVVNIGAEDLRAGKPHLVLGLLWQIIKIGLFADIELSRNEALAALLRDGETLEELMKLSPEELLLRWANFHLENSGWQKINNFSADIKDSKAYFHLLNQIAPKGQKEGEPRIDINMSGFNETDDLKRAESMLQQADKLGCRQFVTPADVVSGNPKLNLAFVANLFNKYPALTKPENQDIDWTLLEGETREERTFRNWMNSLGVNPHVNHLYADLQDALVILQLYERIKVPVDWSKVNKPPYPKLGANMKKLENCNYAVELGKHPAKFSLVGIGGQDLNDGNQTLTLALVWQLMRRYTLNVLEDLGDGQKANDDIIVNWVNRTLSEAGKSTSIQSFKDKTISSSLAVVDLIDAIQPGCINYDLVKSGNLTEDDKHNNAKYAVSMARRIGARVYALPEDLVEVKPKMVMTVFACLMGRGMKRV

[6] = molecular target: T6, HeLa cell extract proteins (Homo sapiens, UniProt Q09666); settings: HeLa; protein AHNAK
T6 construct: endogenous in cells; host or cells: HeLa cell extract

Compound | fold changes relative to vehicle control ([1]; HeLa, protein RPS7) | fold changes relative to vehicle control ([2]; protein PPP4C, HeLa) | fold changes relative to vehicle control ([3]; HeLa, protein RRBP1) | fold changes relative to vehicle control ([4]; HeLa, protein ELOVL5) | fold changes relative to vehicle control ([5]; HeLa, protein PLS3) | fold changes relative to vehicle control [6] | further results
Nc1nc2c(c(=O)[nH]1)N(C=O)C(CNc1ccc(C(=O)N[C@@H](CCC(=O)O)C(=O)O)cc1)CN2 (some centres unmarked) [LEU, leucovorin] | 0.94 | 0.82 | 1.08 | 0.95 | 0.93 |  | 
Nc1nc2[nH]cc(CCc3ccc(C(=O)N[C@@H](CCC(=O)O)C(=O)O)cc3)c2c(=O)[nH]1 [PTX, pemetrexed] |  |  |  |  |  |  | fold changes relative to vehicle control [1]: 0.92; fold changes relative to vehicle control [2]: 0.95; fold changes relative to vehicle control [3]: 1.03; fold changes relative to vehicle control [4]: 0.9; fold changes relative to vehicle control [5]: 1.18
CCCCCCOc1ccc(Cc2cnc(N)nc2N)cc1 [compound 1] |  |  |  |  |  | 0.88 | 
CCCCCCOc1cccc(Cc2cnc(N)nc2N)c1 [compound 2] |  |  |  |  |  | 1.1 | 
Nc1nc2cccc(-c3ccccc3)c2n1Cc1ccc(Cl)c(Cl)c1 [compound 3] |  |  |  |  |  | 0.86 | 
NCCOCCOCC(=O)Nc1nc2ncc(CNc3ccc(C(=O)NC(CCC(=O)O)C(=O)O)cc3)nc2c(=O)[nH]1 (centres unmarked) [compound 6] | 1.06 | 0.95 | 1.35 | 0.98 | 1.31 |  | 
NCCCNc1ccc(C(=O)NC(CCC(=O)O)C(=O)O)cc1 (centres unmarked) [compound 7] | 0.88 | 1 | 1 | 1.02 | 1 |  | 
